Reference: paper PMC5310970 (Journal of photochemistry and photobiology. B, Biology, 2016)
pKi: −log10 of the molar value.

Biological target: Prostate-specific membrane antigen (PSMA) (Homo sapiens, UniProt Q04609)
Assay: fluorescence-based NAALADase inhibition assay
Type: biochemical

Prostate-specific membrane antigen (PSMA), sequence (Q04609 whole entry): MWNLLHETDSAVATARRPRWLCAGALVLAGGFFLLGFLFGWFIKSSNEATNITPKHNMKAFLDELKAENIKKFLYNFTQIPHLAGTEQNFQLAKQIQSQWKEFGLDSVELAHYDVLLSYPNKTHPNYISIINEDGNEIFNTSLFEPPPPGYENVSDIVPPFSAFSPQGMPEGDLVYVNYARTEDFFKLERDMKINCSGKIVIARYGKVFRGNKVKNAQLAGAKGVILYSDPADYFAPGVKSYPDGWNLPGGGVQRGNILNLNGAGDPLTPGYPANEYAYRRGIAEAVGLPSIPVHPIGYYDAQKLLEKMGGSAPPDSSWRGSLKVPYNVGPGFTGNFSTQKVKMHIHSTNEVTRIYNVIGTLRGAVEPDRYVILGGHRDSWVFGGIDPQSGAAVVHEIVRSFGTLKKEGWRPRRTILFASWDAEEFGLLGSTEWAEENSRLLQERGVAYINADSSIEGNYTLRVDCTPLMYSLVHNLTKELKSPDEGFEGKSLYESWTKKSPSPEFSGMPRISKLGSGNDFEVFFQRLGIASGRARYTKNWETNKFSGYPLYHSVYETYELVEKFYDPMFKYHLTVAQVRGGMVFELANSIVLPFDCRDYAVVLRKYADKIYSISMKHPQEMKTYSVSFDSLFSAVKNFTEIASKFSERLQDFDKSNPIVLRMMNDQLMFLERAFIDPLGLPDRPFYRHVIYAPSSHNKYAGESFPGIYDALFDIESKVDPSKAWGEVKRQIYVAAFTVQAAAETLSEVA

Work on YC-9 yielded a pKi of 9.70.
